“Also recorded” adds a separate entry of the source. Read-outs that look alike come from different tables or passages of the source.
How the values were obtained:
SARS-CoV-2 Wk-521 strain = experiment: SARS-CoV-2 infection assay, viral RNA in culture supernatant (VeroE6/TMPRSS2 cells); format: cell-based
SARS-CoV-2 [1] = experiment: SARS-CoV-2-induced cytopathic effect (CPE) in VeroE6/TMPRSS2 cells; format: cell-based
SARS-CoV-2 [2] = format: cell-based
SARS-CoV-2 [3] = experiment: Time of addition assay, SARS-CoV-2 viral RNA; format: cell-based; conditions: 15 μM RDV, 15 μM CLQ, 10 μM Oxy210, 10 μM Oxy133
[4] = test system: double-membrane vesicles (DMVs) in SARS-CoV-2-infected cells; experiment: Electron microscopy of double-membrane vesicle (DMV) formation; format: cell-based; conditions: 10 μM Oxy210, Oxy232 (10 μM)
[5] = test system: HCV NN (genotype-1b) subgenomic replicon; format: cell-based, Hepatitis C virus (HCV); conditions: 10 μM Oxy210; 48 h; LucNeo #2 cells
HDV = format: cell-based, Hepatitis D virus (HDV); conditions: 10 μM Oxy210 for six days; 200 nM MyrB; HepG2-hNTCP-C4 cells
[6] = format: in vivo, mice; conditions: chow diet containing 4 mg Oxy210/g of food; 96 h
[7] = test system: SARS-CoV-2 (isolate USA WA1/2020); experiment: SARS-CoV-2 infection of Calu-3 cells (dsRNA+ cells, automated microscopy); format: cell-based; conditions: Severe acute respiratory syndrome coronavirus 2, SARS-CoV-2 USA WA1/2020, MOI=0.5, 48 h post-infection, Calu-3
Experimental: (§1) FIGS. 12A-12C depict dose-response curves for Oxy232. (FIG. 12A) Secreted viral RNA in the VeroE6 culture supernatant 24 h post-inoculation was quantified by real-time RT-PCR. Cell viability of Oxy232 treated cells evaluated with an MTT assay. (FIG. 12B) Secreted viral RNA of 3 SARS-CoV-2 strains in the VeroE6 culture supernatant 24 h post-inoculation was quantified by real-time RT-PCR. (FIG. 12C) Calu-3 (ATCC) cells were pretreated with Oxy232 for 2 hours prior to continuous infection with SARS-CoV-2 (isolate USA WA1/2020) at MOI=0.5. 48 h post-infection, cells were fixed, immune-strained, and imaged by automated microscopy for infection (dsRNA+ cells/total cell number) and cell number.
According to a previously published report (Ohashi et al., Identification of Anti-Severe Acute Respiratory Syndrome-Related Coronavirus 2 (SARS-CoV-2) Oxysterol Derivatives In Vitro. Int J Mol Sci. 2021; 22(6):3163. PMCID: PMC8003796) inventors have tested a collection of naturally occurring and semisynthetic oxysterol derivatives in a SARS-CoV-2 cell culture infection assay in VeroE6/TMPRSS2 cells. […] See, Ohashi et al., Int J Mol Sci. 2021; 22(6):3163 and Dittmar et al. Drug repurposing screens reveal cell-type-specific entry pathways and FDA-approved drugs active against SARS-Cov-2. Cell Rep. […] PMCID: PMC7985926. […] Without wishing to be bound by a theory, biological activities of oxysterols, including measures of cell viability, can heavily depend on in vitro assay conditions, such as the fetal bovine serum concentration or the duration of pretreatment with the compounds, among other factors, that may not translate to the in vivo safety of the compounds.

[8] = test system: SARS-CoV-2 TY7-501 (Brazil strain); experiment: SARS-CoV-2 TY7-501 strain infection in VeroE6/TMPRSS2 cells; format: cell-based; conditions: viral RNA 24 h post-inoculation
Experimental: as §1
(§2) According to a previously published report (Ohashi et al., Identification of Anti-Severe Acute Respiratory Syndrome-Related Coronavirus 2 (SARS-CoV-2) Oxysterol Derivatives In Vitro. Int J Mol Sci. 2021; 22(6):3163. PMCID: PMC8003796) inventors have tested a collection of naturally occurring and semisynthetic oxysterol derivatives in a SARS-CoV-2 cell culture infection assay in VeroE6/TMPRSS2 cells. […] See, Ohashi et al., Int J Mol Sci. 2021; 22(6):3163 and Dittmar et al. Drug repurposing screens reveal cell-type-specific entry pathways and FDA-approved drugs active against SARS-Cov-2. Cell Rep. […] PMCID: PMC7985926. […]

[9] = test system: SARS-CoV-2 TY8-612 (South Africa strain); experiment: SARS-CoV-2 TY8-612 strain infection in VeroE6/TMPRSS2 cells; format: cell-based; conditions: viral RNA 24 h post-inoculation
Experimental: as §1, §2

[10] = test system: idiopathic pulmonary fibrosis (IPF); experiment: Mouse model of idiopathic pulmonary fibrosis (IPF); format: in vivo; conditions: Parhami et al., unpublished observations
[11] = In vivo safety and tolerability in mice; conditions: mouse
VeroE6/TMPRSS2 cells = conditions: read-out: CC50 (VeroE6); VeroE6
[12] = single oral dose 200 mg/kg
Calu-3 cells = conditions: at higher concentrations; automated microscopy
TGFβ signaling = conditions: previously reported [16]; fibroblastic cells and tumor cells; cited from earlier work
Hedgehog (Hh) signaling = conditions: previously reported [16]; fibroblastic cells and tumor cells; cited from earlier work
in vivo = conditions: balb/c, mouse, po, 200 mg/kg
in vitro [13] = conditions: African green monkey
in vitro [14] = conditions: human

C[C@]12CC[C@H]3[C@@H](CC=C4C[C@@H](O)CC[C@@]43C)[C@@H]1CC[C@@H]2[C@](C)(O)CCc1cccnc1 [Oxy210, (3S,8S,9S,10R,13S,14S,17S)-17-((R)-2-hydroxy-4-(pyridin-3-yl)butan-2-yl)-10,13-dimethyl-2,3,4,7,8,9,10,11,12,13,14,15,16,17-tetradecahydro-1H-cyclopenta[a]phenanthren-3-ol]
viral RNA in the culture supernatant (SARS-CoV-2 Wk-521 strain; 24 h post-inoculation, natural oxysterols up to 30 μM, semi-synthetic up to 15 μM): reduced viral RNA level in a dose-dependent manner
IC50 (SARS-CoV-2 Wk-521 strain; Severe acute respiratory syndrome coronavirus 2, Vero C1008, SARS-CoV-2, VeroE6, read-out: IC50 (VeroE6)): 5.5 µM
IC90 (SARS-CoV-2 Wk-521 strain; Severe acute respiratory syndrome coronavirus 2, Vero C1008, SARS-CoV-2, VeroE6, read-out: IC90 (VeroE6)): 8.6 µM
IC90 (SARS-CoV-2 Wk-521 strain; Severe acute respiratory syndrome coronavirus 2, VeroE6/TMPRSS2, 24 h, SARS-CoV-2 viral RNA in culture supernatant, 24 h post-inoculation, VeroE6/TMPRSS2 cells, read-out: IC90): 8.6 µM
IC50 (SARS-CoV-2 Wk-521 strain; Severe acute respiratory syndrome coronavirus 2, SARS-CoV-2 viral RNA in culture supernatant, 24 h post-inoculation, VeroE6/TMPRSS2 cells, read-out: IC50): 5.5 µM
reduction of viral RNA production at the maximum (SARS-CoV-2 Wk-521 strain; at 15 μM): 99.4%
anti-SARS-CoV-2 activity (SARS-CoV-2 Wk-521 strain; cell-based assay, VeroE6/TMPRSS2): superior anti-SARS-CoV-2 activity; also recorded: robust anti-SARS-CoV-2 activity
viral RNA levels in the culture supernatant (SARS-CoV-2 Wk-521 strain; oxysterol derivatives at 10 or 30 uM, 24 h post-inoculation, VeroE6/TMPRSS2): strongly reduced viral RNA levels
SARS-CoV-2 propagation in cultured cells (SARS-CoV-2 Wk-521 strain; statement in words): potently inhibits the SARS-CoV-2 propagation
SARS-CoV-2 replication (SARS-CoV-2 Wk-521 strain; statement in words): drastically reduced SARS-CoV-2 replication; also recorded: inhibits the SARS-CoV-2 genome replication; also recorded: potent replication inhibitor
antiviral effect against SARS-CoV-2 (dose response, viral RNA) (SARS-CoV-2 Wk-521 strain; various concentrations, VeroE6/TMPRSS2): highly potent antiviral effect
virus-induced CPE (SARS-CoV-2 [1]; 48 h post-inoculation, 10 μM RDV, 30 μM cholesterol, 30 μM 7-KC, 10 μM Oxy133, 10 μM Oxy210, MOI 0.001): alleviates the virus-induced CPE; also recorded: blocked
SARS-CoV-2-induced cytopathic effect (SARS-CoV-2 [1]; oxy8 7.5 uM, oxy16 20 uM, oxy186 20 uM, oxy210 10 uM, 48 h, VeroE6/TMPRSS2): protected cells from cytopathic effect
SARS-CoV-2 propagation / spread of infection (viral N protein, immunofluorescence) (SARS-CoV-2 [2]): blocked
viral RNA, compound present during the whole life cycle (SARS-CoV-2 [3]; 24 h): clearly reduced viral RNA levels
viral RNA, compound present post-entry (SARS-CoV-2 [3]; added 2 h post-inoculation for 21 h): clearly reduced viral RNA levels; also recorded: predominantly inhibits the post-entry process
DMV formation in SARS-CoV-2-infected cells [4]: disrupting the formation of double-membrane vesicles; also recorded: reduced viral replication and the formation of double-membrane vesicles; also recorded: remarkably reduced the DMV formation; also recorded: reduced the formation of DMVs; also recorded: substantially reduced; also recorded: inhibit DMV formation
HCV replication (luciferase activity) [5]: reduced the DMV-dependent RNA replication of HCV; also recorded: Antiviral effects of Oxy210 were also observed during the replication of HCV
HDV replication / infection (HDV RNA, real-time RT-PCR) (HDV): antiviral activity was not observed in HDV infection
adverse effects / body weight [6]: No adverse effects or significant loss of body weight
IC50 ([7]; read-out: IC50 (Calu-3)): 1.5 µM
IC90 ([7]; read-out: IC90 (Calu-3)): 4.24 µM
activity against the TY7-501 strain [8]: undiminished activity
activity against the TY8-612 strain [9]: undiminished activity
effects in a mouse model of idiopathic pulmonary fibrosis (IPF) [10]: protective effects
in vivo safety and tolerability in mice [11]: excellent in vivo safety and tolerability
CC50 (VeroE6/TMPRSS2 cells): > 15 µM
Tmax ([12]; plasma): 1 h
Cmax ([12]; read-out: peak plasma concentration (Cmax), 200 mg/kg): 19.4 µM
peak plasma concentration (Cmax) [12]: 8,155 ng/mL
tolerability [12]: well tolerated
cell viability in Calu-3 cells (Calu-3 cells): do affect cell viability
TGFβ signaling (TGFβ signaling): inhibited
Hedgehog (Hh) signaling (Hedgehog (Hh) signaling): inhibited
AUC (in vivo): 29300 ng·h/mL
Cmax (in vivo): 19 µM
CC50 (in vitro [13]): > 15 µM
CC50 (in vitro [14]): 8.3 µM
